The record followed here is patent publication US20170273985A1, “TRICYCLIC DERIVATIVE” (Sunovion Pharmaceuticals Inc., priority 2014, published 2017).

Common to all, as to assay type: biochemical
The target in one assay is PDE1C (Homo sapiens, UniProt Q14123). The assay can be described thus: In vitro HTRF PDE1 inhibition assay (PDE1C). The source says:
(§1) An exemplary procedure for the in vitro Homogenous Time Resolved Fluorescence assay, which can be used to determine the inhibitory action of compounds of the invention toward PDE1 or its isoforms, follows. The HTRF PDE1 assay utilized the HTRF (Homogenous Time Resolved Fluorescence) technology, which is based on the competition between unlabeled cyclic nucleotide and cyclic nucleotide labeled with XL665 for the binding to cyclic nucleotide-specific antibody labeled with cryptate. The HTRF signal is thus inversely proportional to the concentration of cyclic nucleotide being measured. Since phosphodiesterases break down cyclic nucleotides the HTRF signal was used to determine PDE activity. The Cisbio cGMP HTRF assay kit (Cat no: 62GM2PEC) was utilized. Cyclic GMP was diluted to 200 nM in HTRF assay buffer (1 mM CaCl2, 10 mM MgCl2, 10 mM Tris-HCl, 0.1% BSA, pH 7.4). 10 μl of compound or DMSO was diluted in 200 nM cyclic GMP solution and added to wells of a 96 well white plate to give 100 nM cyclic GMP in 1% DMSO final concentration. PDE (1A3, 1B or IC) was diluted to 2× working concentration in HTRF assay buffer with 2 μg/ml calmodulin, and 10 μl was added to initiate the reaction. The plate was then incubated for 45 minutes at 37° C. d2-Labelled cyclic GMP and anti-cGMP cryptate were diluted in 50 mM phosphate buffer, 0.8 M KF, 1% Triton X100, 0.2% BSA, pH 7.0. Following incubation 10 μl d2-cGMP, then 10 μl anti cGMP cryptate were added to each well and the plate was incubated for 45 minutes at room temperature. The plate was then read on Perkin Elmer Victor at 2 different FRET readings ex/emm 340 nm/665 nm and 340 nm/615 nm. Compounds having an IC50 of <1 μM, are denoted as +++. Compounds having an IC50 of 1−10 μM, are denoted as ++. Compounds having an IC50 of 10-100 μM, are denoted as +.

A further assay deals with PDE1B (Homo sapiens, UniProt Q01064). The experiment in a line: In vitro HTRF PDE1 inhibition assay (PDE1B). A digest of the protocol: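 PDE1A3, 1B or 1C with calmodulin hydrolysed 100 nM cGMP in Tris buffer pH 7.4 (1 mM CaCl2, 10 mM MgCl2, 0.1% BSA, 1% DMSO) for 45 min at 37 °C. Remaining cGMP was measured by HTRF competition (d2-cGMP, anti-cGMP cryptate; 665/615 nm). IC50 is reported in bins: <1, 1-10 and 10-100 μM.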
For orientation: TR-FRET usually uses a lanthanide donor and a delayed reading to cut background.

A further assay deals with PDE1A3 (Homo sapiens, UniProt P54750). The experiment in a line: In vitro HTRF PDE1 inhibition assay (PDE1A3).
From the text: as §1

The IC50 is the concentration that gives 50% inhibition. A lower IC50 goes with greater potency in that assay. On to `CCN1c2nn3c(C4CCOCC4)ncc3c(=O)n2CC[C@@H]1c1ccc(Cl)cc1` [Example 70], for which the IC50 at PDE1C (Table 24) was 1000 to 10000 nM; against PDE1B (Table 22), less than 1000 nM; against PDE1A3 (Table 23), less than 1000 nM.
Consider `CC(C)n1ncc2c(=O)n3c(nc21)N(Cc1ccc(-c2ccccn2)cc1)CC3` [Example 75], for which the IC50 at PDE1C (Table 24), against PDE1B (Table 22) and at PDE1A3 (Table 23) was less than 1000 nM each time.
Turning to `CC(C)n1ncc2c(=O)n3c(nc21)N(CC1CCOCC1)CCC3` [Example 78], the IC50 is 1000 to 10000 nM on PDE1C (Table 24), less than 1000 nM on PDE1B (Table 22) and less than 1000 nM against PDE1A3 (Table 23).
Turning to `CC(C)n1ncc2c(=O)n3c(nc21)N(Cc1ccc(C#N)cc1)CCC3` [Example 79], the IC50 on PDE1C (Table 24), against PDE1B (Table 22) and against PDE1A3 (Table 23) was less than 1000 nM each time.
Take `CC(C)n1ncc2c(=O)n3c(nc21)N(C)C(c1ccc(Cl)cc1)CC3` (stereo not drawn) [Example 81]: the IC50 is 1000 to 10000 nM against PDE1C (Table 24), less than 1000 nM against PDE1B (Table 22) and less than 1000 nM on PDE1A3 (Table 23).
With `CC(C)c1ncc2c(=O)n3c(nn12)N(CCCCCCO)CCC3` [Example 106], the IC50 against PDE1C (Table 24), against PDE1B (Table 22) and at PDE1A3 (Table 23) was less than 1000 nM in each case.
Turning to `CC(C)c1ncc2c(=O)n3c(nn12)N(CCCc1ccccn1)CCC3` [Example 120, 9-Isopropyl-1-[3-(2-pyridinyl)propyl]-1,2,3,4-tetrahydro-6H-imidazo[5,1-f]pyrimido[2,1-c][1,2,4]triazin-6-one], the IC50 against PDE1C (Table 24), against PDE1B (Table 22) and against PDE1A3 (Table 23) was less than 1000 nM throughout.
As for `O=c1c2cnc(C3CCCC3)n2nc2n1CCCC2` [Example 137], the IC50 against PDE1C (Table 24) is 1000 to 10000 nM; against PDE1B (Table 22) it was less than 1000 nM; against PDE1A3 (Table 23), 1000 to 10000 nM.
`O=c1c2cnc(C3CCOCC3)n2nc2n1CCN2CC1CCCCC1` [Example 153]: the IC50 against PDE1C (Table 27), against PDE1B (Table 25) and against PDE1A3 (Table 26) was less than 1000 nM in each case.
Turning to `O=c1c2cnc(C3CCOCC3)n2nc2n1CCN2Cc1ccc(F)cc1` [Example 154], the IC50 at PDE1C (Table 27), against PDE1B (Table 25) and against PDE1A3 (Table 26) was less than 1000 nM each time.
Consider `O=c1c2cnc(C3CCOCC3)n2nc2n1CCN2Cc1cccc(F)c1` [Example 155], for which the IC50 at PDE1C (Table 27), on PDE1B (Table 25) and at PDE1A3 (Table 26) was less than 1000 nM in each case.
On to `O=c1c2cnc(C3CCOCC3)n2nc2n1CCN2Cc1ccccc1F` [Example 156], for which the IC50 on PDE1C (Table 27), on PDE1B (Table 25) and against PDE1A3 (Table 26) was less than 1000 nM each time.
On to `O=c1c2cnc(C3CCOCC3)n2nc2n1CCN2CC1(C(F)(F)F)CC1` [Example 159], for which the IC50 against PDE1C (Table 27), against PDE1B (Table 25) and against PDE1A3 (Table 26) was less than 1000 nM each time.
Take `O=c1c2cnc(C3CCOCC3)n2nc2n1CCN2CCC1(C(F)(F)F)CC1` [Example 160]: the IC50 on PDE1C (Table 27), against PDE1B (Table 25) and at PDE1A3 (Table 26) was less than 1000 nM in each case.
`O=c1c2cnc(C3CCOCC3)n2nc2n1CCN2CC1CCC(F)(F)CC1` [Example 171]: the IC50 at PDE1C (Table 27), on PDE1B (Table 25) and at PDE1A3 (Table 26) was less than 1000 nM each time.
In the case of `CC(C)CCN1CCn2c1nn1c(C3CCOCC3)ncc1c2=O` [Example 172], the IC50 at PDE1C (Table 27), on PDE1B (Table 25) and at PDE1A3 (Table 26) was less than 1000 nM throughout.
`O=c1c2cnc(C3CCOCC3)n2nc2n1CCCN2CC1(C(F)(F)F)CC1` [Example 187]: the IC50 on PDE1C (Table 27), against PDE1B (Table 25) and against PDE1A3 (Table 26) was less than 1000 nM throughout.
In the case of `O=c1c2cnc(C3CCOCC3)n2nc2n1CCCN2CC1CCC(F)(F)CC1` [Example 190], the IC50 at PDE1C (Table 27), against PDE1B (Table 25) and on PDE1A3 (Table 26) was less than 1000 nM throughout.
Turning to `CO[C@H]1CC[C@H](CN2CCCn3c2nn2c(C4CCOCC4)ncc2c3=O)CC1` [Example 191], the IC50 on PDE1C (Table 27), on PDE1B (Table 25) and on PDE1A3 (Table 26) was less than 1000 nM in each case.
